Values of other authors, collected in patent US8415392B2, “Combined use of L-carnitine, acetyle L-carnitine and propionyl L-carnitine for the treatment of oligoasthenoteratospermia” (Sigma-Tau Industrie Farmaceutiche Riunite, S.p.A., priority 2002, dated 2013).

Columns and labels:
[1] = system: patients with idiopathic asthenospermia; conditions: L-carnitine administration
[2] = system: patients with idiopathic oligoastheno-spermia; conditions: acetyl L-carnitine
[3] = Fertilität 4.1-4, 1988, L-carnitine therapy

C[N+](C)(C)C[C@H](O)CC(=O)[O-] [L-carnitine]
patients in whom sperm motility improved and sperm count increased [1]: 37 out of 47 | sperm motility (infertile patients; Andrologia 26:155-159, 1994, quantitative and qualitative): significant improvement | carnitine levels in the spermatozoa (infertile patients; [3]): increase | sperm motility and sperm count (infertile patients; [3]): increase | sperm quality (infertile patients; Loumbakis et al. 1996, preliminary data): may have a positive effect

CC(=O)O[C@H](CC(=O)[O-])C[N+](C)(C)C [acetyl L-carnitine]
sperm density [2]: no effect | sperm motility [2]: progressive increase
